Here are results for 2 molecules from patent US7538252B2, “Drug design for tubulin inhibitors, compositions, and methods of treatment thereof” (BiPar Sciences, Inc., priority 2006, dated 2009).

The structures appear in SMILES notation.

One assay relates to HeLa cells. Nature of the assay: TUNEL apoptosis assay with flow cytometry. The format is cell-based. Conditions: FIG. 7, compared to control DIPE. An excerpt:
Programmed cell death (apoptosis) is an important homeostatic mechanism in the immune and other systems. The phenomenon of nuclear disintegration during apoptosis can be used as a marker to detect cells undergoing this process. While a variety of methods are available to detect apoptotic cells the TUNEL assay allows the rapid phenotypic identification of individual apoptotic cells using flow cytometry (FACS). Terminal transferase dUTP nick end labeling (TUNEL) is a common method for detecting DNA fragmentation that results from apoptosis. The assay based on the presence of nicks in the DNA that can be identified by terminal transferase, an enzyme that will catalyze the addition of dUTPs that are secondarily labeled with a marker. It may also label cells undergoing necrosis or cells that have suffered severe DNA damage.
Hela cells were obtained from ATCC. For DNA content analysis, 2×10^5 cells were washed twice with PBS and fixed in 70% ethanol. Cells were treated with 100 units/mL RNase A for 20 minutes at 37° C., resuspended in cold PBS containing Alexa Fluor® 405 fluorescent stain (Invitrogen) according to the manufacturer's protocol. Cells were analyzed by flow cytometry to characterize the cell cycle. […]
For orientation: A flow cytometer gives signals particle by particle.

In another assay the test system is HCT116 and Hela cells. Nature of the assay: Cell cycle analysis by flow cytometry. The format is cell-based. The note with it: FIG. 6, compared to control DIPE. How it is done:
HCT116 and Hela cells were obtained from ATCC. For DNA content analysis, 2×10^5 cells were washed twice with PBS and fixed in 70% ethanol. Cells were treated with 100 units/mL RNase A for 20 minutes at 37° C., resuspended in cold PBS containing Alexa Fluor® 405 fluorescent stain (Invitrogen) according to the manufacturer's protocol. Cells were analyzed by flow cytometry.
For DNA replication analysis, 2×10^5 cells were incubated with 50 μmol/L bromodeoxyuridine (BrdUrd) for 30 minutes. Cells were fixed in 70% ethanol and BrdUrd incorporation was determined by flow cytometric analysis using an anti-BrdUrd-FITC antibody (Becton Dickinson, Franklin Lakes, N.J.) according to the manufacturer's protocol. To assess the degree of G2/M checkpoint, mitotic cells were detected by flow cytometry using the mitosis-specific antibody GF-7. Fixed cells were incubated for 30 minutes with GF7-phycoerythrin (PE) antibody (BD Biosciences Pharmingen), washed with PBS and analyzed by flow cytometry. FIG. 6 compares the results obtained with DIPE and formula IIIB.

The test system of another assay is TNF-alpha mRNA. Nature of the assay: TNF-alpha mRNA level in LPS-stimulated PU5-1.8 macrophages (Northern blot). The format is cell-based, murine. How it is done: This example provides an assay that can be used to screen compounds of Formula I for their ability to reduce the expression of cytokines (e.g., TNF-alpha) in a mammal.
The murine macrophage PU5-1.8 cell line is purchased from the American Type Culture Collection (ATCC, Rockville, Md.). Cells are grown in DMEM medium supplemented with […] sodium pyruvate, 0.1 mM nonessential amino acids, 2 mM glutamine and 5% fetal bovine serum (Life Technologies, Staten Island, N.Y.). Cells are maintained in a humidified atmosphere of 5% CO2-95% air at 37° C. Cells are passaged twice weekly by firmly tapping the side of the flask to dislodge the adherent cells. Both non-adherent and adherent cells are passaged. Exponentially growing cells are seeded at 5×10^5/mL, 4 mL per 60-mm dish 24 h prior to the experiment. Test compounds are delivered in 1 mL volumes of the medium added to each dish at the start of the experiment. All dishes are incubated at 37° C. in 5% CO2-95% air for 3 h.
The Tumor Necrosis Factor (TNF-alpha) cDNA is obtained from the ATCC (Rockville, Md.). […]
Hybridized bands are quantified by analyzing the images obtained by using a video densitometer (Applied Imaging Corporation, Santa Clara, Calif.). […]
Treatment of PU5-1.8 murine macrophages with LPS (100 ng/mL) for 3 h results in a significant increase (>7 fold) in the level of TNF-alpha mRNA as determined by Northern blot analysis. […]

In the case of `COc1ccc(Oc2c(I)cc(C(C)=O)cc2I)cc1N` [Formula IIIB, 1-(4-(3-amino-4-methoxyphenoxy)-3,5-diiodophenyl)ethanone], the induction of apoptosis entry with HeLa cells is “induction of apoptosis”. For the same molecule, the cell-cycle arrest entry with HCT116 and Hela cells is listed as “cell-cycle arrest”.
On to `COc1cc2c(c(OC)c1OC)-c1ccc(OC)c(=O)cc1[C@@H](NC(C)=O)CC2` [colchicine], for which the “inhibition of TNF-alpha mRNA accumulation” value in the assay with TNF-alpha mRNA (10 μM added to LPS (100 ng/mL) treated cultures, 3 h) was 68%. Further, the “effect on TNF-alpha mRNA expression” value with TNF-alpha mRNA (10 μM, cells without LPS) is given as “no effect”.
